Measured values reported in article PMC7554048, “FBI-1 enhanced the resistance of triple-negative breast cancer cells to chemotherapeutic agents via the miR-30c/PXR axis” (Cell Death & Disease, 2020).
Where two headings read alike, the source gives them in different places.

Columns and labels:
[1] = Olaparib sustained in cultured TNBC cells, LC-MS/MS (half-life); type: in vitro ADME, human; settings: human
Experimental: (§1) TNBC cells transfected with plasmids were used for the pharmacokinetic experiments to examine the amount of olaparib sustained in the cells. For the cell-based experiments, cells were treated with 1 μmol/L concentration of olaparib for 12 h[33]. Then, cells were harvested at indicated time-points. For the animal experiments, TNBC cells were injected into the subcutaneous position to form subcutaneous tumor tissues. After 2–3 weeks’ growth, when the tumor volumes reached 1500–2000 mm^3, the solution of olaparib was injected into the subcutaneous tumors. Then, the tumor tissues were harvested at indicated times[34],[35]. The olaparib in cells or tumor tissues was extracted by acetonitrile (ACN), and the amount of olaparib sustained in cells or tumor tissues at each time point was determined by liquid chromatography–mass spectrometry/mass spectrometry (LC-MS/MS), following the methods established by Krens et al.[36]. The sustaining rates of olaparib were calculated as (the amount of olaparib at each time)/(the amount of olaparib at 0-time) × 100%. The sustaining curves or the half-time life (t1/2) of olaparib was obtained by the sustained rates of olaparib.

[2] = Olaparib sustained in subcutaneous TNBC tumors after intratumoral injection, LC-MS/MS (half-life); type: in vivo, nude mice; settings: nude, mouse, subcutaneous tumor tissue, other: injected into the subcutaneous tumors (intratumoral), read-out: Half life values of olaparib (t1/2) In subcutaneous tumors (converted)
Experimental: as §1

O=C(c1cc(Cc2n[nH]c(=O)c3ccccc23)ccc1F)N1CCN(C(=O)C2CC2)CC1 [olaparib]
half-life at 1 μmol/L ([1]; MDA-MB-436, FBI-1 + miR-30c, read-out: half life values of olaparib (t1/2) (converted)): 44.1 ± 5.75 h | half-life at 1 μmol/L ([1]; MDA-MB-436 TNBC cells, MDA-MB-436, FBI-1, read-out: half life values of olaparib (t1/2) (converted)): 13.4 ± 2.75 h | half-life at 1 μmol/L ([1]; MDA-MB-436 TNBC cells, MDA-MB-436, control, read-out: half life values of olaparib (t1/2) (converted)): 28.9 ± 4.32 h | half-life at 1 μmol/L ([1]; MDA-MB-436 TNBC cells, MDA-MB-436, miR-30c + PXR^Mut, read-out: half life values of olaparib (t1/2) (converted)): 11.2 ± 4.33 h | half-life at 1 μmol/L ([1]; MDA-MB-436 TNBC cells, MDA-MB-436, miR-30c, read-out: half life values of olaparib (t1/2) (converted)): 51.3 ± 7.14 h | half-life at 1 μmol/L ([1]; MDA-MB-436 TNBC cells, MDA-MB-436, siFBI-1 + miR-30c inhibitor, read-out: half life values of olaparib (t1/2) (converted)): 20.3 ± 5.48 h | half-life at 1 μmol/L ([1]; MDA-MB-436 TNBC cells, MDA-MB-436, siFBI-1, read-out: half life values of olaparib (t1/2) (converted)): 47.3 ± 7.42 h | half-life at 1 μmol/L ([1]; TNBC cells PDC No. 2, PDC No. 2, Control, read-out: Half life values of olaparib (t1/2) In cultured cells (converted)): 21.7 ± 6.89 h | half-life at 1 μmol/L ([1]; TNBC cells PDC No. 2, PDC No. 2, siFBI-1, read-out: Half life values of olaparib (t1/2) In cultured cells (converted)): 60.8 ± 4.85 h | half-life at 1 μmol/L ([1]; TNBC cells PDC No. 3, PDC No. 3, Control (Table 3), read-out: Half life values of olaparib (t1/2) In cultured cells (converted)): 25 ± 7.82 h | half-life at 1 μmol/L ([1]; TNBC cells PDC No. 3, PDC No. 3, Control (Table 4), read-out: Half-life values of olparib (t1/2) (converted)): 27.4 ± 4.3 h | half-life at 1 μmol/L ([1]; TNBC cells PDC No. 3, PDC No. 3, FBI-1 (Table 3), read-out: Half life values of olaparib (t1/2) In cultured cells (converted)): 11.7 ± 3.88 h | half-life at 1 μmol/L ([1]; TNBC cells PDC No. 3, PDC No. 3, FBI-1 (Table 4), read-out: Half-life values of olparib (t1/2) (converted)): 10.6 ± 4.54 h | half-life at 1 μmol/L ([1]; TNBC cells PDC No. 3, PDC No. 3, siFBI-1, read-out: Half life values of olaparib (t1/2) In cultured cells (converted)): 59.2 ± 8.91 h | half-life at 1 μmol/L ([1]; TNBC cells PDC No. 3, with ketoconazole (concentration not stated), PDC No. 3, FBI-1 + ketoconazole, read-out: Half-life values of olparib (t1/2) (converted)): 26.2 ± 3.85 h | half-life at 1 μmol/L ([1]; TNBC cells PDC No. 6, PDC No. 6, Control, read-out: Half life values of olaparib (t1/2) In cultured cells (converted)): 19.4 ± 5.83 h | half-life at 1 μmol/L ([1]; TNBC cells PDC No. 6, PDC No. 6, siFBI-1, read-out: Half life values of olaparib (t1/2) In cultured cells (converted)): 51.4 ± 11.5 h | half-life at 1 μmol/L ([1]; TNBC cells PDC No. 7, PDC No. 7, Control, read-out: Half life values of olaparib (t1/2) In cultured cells (converted)): 21 ± 5.01 h | half-life at 1 μmol/L ([1]; TNBC cells PDC No. 7, PDC No. 7, siFBI-1, read-out: Half life values of olaparib (t1/2) In cultured cells (converted)): 55.5 ± 9.97 h | half-life at 1 μmol/L ([1]; TNBC cells PDC No. 9, PDC No. 9, Control (Table 3), read-out: Half life values of olaparib (t1/2) In cultured cells (converted)): 33.8 ± 5.5 h | half-life at 1 μmol/L ([1]; TNBC cells PDC No. 9, PDC No. 9, Control (Table 4), read-out: Half-life values of olparib (t1/2) (converted)): 36.3 ± 6.64 h | half-life at 1 μmol/L ([1]; TNBC cells PDC No. 9, PDC No. 9, FBI-1 (Table 3), read-out: Half life values of olaparib (t1/2) In cultured cells (converted)): 18.1 ± 4.44 h | half-life at 1 μmol/L ([1]; TNBC cells PDC No. 9, PDC No. 9, FBI-1 (Table 4), read-out: Half-life values of olparib (t1/2) (converted)): 14.9 ± 2.88 h | half-life at 1 μmol/L ([1]; TNBC cells PDC No. 9, with ketoconazole (concentration not stated), PDC No. 9, FBI-1 + ketoconazole, read-out: Half-life values of olparib (t1/2) (converted)): 37.8 ± 5.55 h | half-life ([2]; PDC No. 2, Control): 30.1 ± 6.81 h | half-life ([2]; PDC No. 2, siFBI-1): 53.7 ± 7.34 h | half-life ([2]; PDC No. 3, Control): 32.2 ± 9.21 h | half-life ([2]; PDC No. 3, FBI-1): 17.9 ± 8.65 h | half-life ([2]; PDC No. 3, siFBI-1): 62.7 ± 6.77 h | half-life ([2]; PDC No. 6, Control): 28.6 ± 9.84 h | half-life ([2]; PDC No. 6, siFBI-1): 43.6 ± 7.72 h | half-life ([2]; PDC No. 7, Control): 31.4 ± 9.95 h | half-life ([2]; PDC No. 7, siFBI-1): 58.2 ± 9.06 h | half-life ([2]; PDC No. 9, Control): 36.1 ± 8.33 h | half-life ([2]; PDC No. 9, FBI-1): 22.6 ± 4.36 h
